Measurements published in PMC11845477, “Exploring the principles behind antibiotics with limited resistance” (Nature Communications, 2025).

System: A. baumannii ATCC 17978 (SEN) and A. baumannii ATCC BAA-1605 (MDR)
Assay: Adaptive laboratory evolution (ALE), relative MIC of evolved lines
Format: cell-based, Acinetobacter baumannii
Method in brief: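 Ten parallel populations per antibiotic–ancestor pair were evolved in MHB at 37 °C, starting near 50% growth-inhibiting drug. Every 72 h they were passaged into 0.5–2.5× increasing concentrations, keeping the highest-drug well with OD600 > 0.2.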

[1] = AB-MDR (Acinetobacter baumannii ATCC BAA 1605), evolved line 2
[2] = AB-MDR (Acinetobacter baumannii ATCC BAA 1605), evolved line 5
[3] = AB-MDR (Acinetobacter baumannii ATCC BAA 1605), evolved line 7
[4] = AB-MDR (Acinetobacter baumannii ATCC BAA 1605), evolved line 9
[5] = AB-MDR (Acinetobacter baumannii ATCC BAA 1605), evolved line 10
[6] = AB-SEN (Acinetobacter baumannii ATCC 17978), evolved line 4
[7] = AB-SEN (Acinetobacter baumannii ATCC 17978), evolved line 6
[8] = AB-SEN (Acinetobacter baumannii ATCC 17978), evolved line 8
[9] = AB-SEN (Acinetobacter baumannii ATCC 17978), evolved line 9
[10] = AB-SEN (Acinetobacter baumannii ATCC 17978), evolved line 10

## CC(C)c1ccc(Cn2ccc3c4c(N)nc(NC5CC5)nc4ccc32)cc1 [SCH79797]
AB-MDR (A. baumannii ATCC BAA 1605), evolved line 2 of the given antibiotic
  MIC of evolved line: 8 µg/mL
AB-MDR (A. baumannii ATCC BAA 1605), evolved line 2 vs ancestor
  Relative MIC: 2
AB-MDR (A. baumannii ATCC BAA 1605), evolved line 5 of the given antibiotic
  MIC of evolved line: 8 µg/mL
AB-MDR (A. baumannii ATCC BAA 1605), evolved line 5 vs ancestor
  Relative MIC: 2
AB-MDR (A. baumannii ATCC BAA 1605), evolved line 7 of the given antibiotic
  MIC of evolved line: 16 µg/mL
AB-MDR (A. baumannii ATCC BAA 1605), evolved line 7 vs ancestor
  Relative MIC: 4
AB-MDR (A. baumannii ATCC BAA 1605), evolved line 9 of the given antibiotic
  MIC of evolved line: 8 µg/mL
AB-MDR (A. baumannii ATCC BAA 1605), evolved line 9 vs ancestor
  Relative MIC: 2
AB-MDR (A. baumannii ATCC BAA 1605), evolved line 10 of the given antibiotic
  MIC of evolved line: 8 µg/mL
AB-MDR (A. baumannii ATCC BAA 1605), evolved line 10 vs ancestor
  Relative MIC: 2
[1]
  Relative MIC: 2
  Relative MIC (log10): 0.301 log10
[2]
  Relative MIC: 2
  Relative MIC (log10): 0.301 log10
[3]
  Relative MIC: 4
  Relative MIC (log10): 0.6021 log10
[4]
  Relative MIC: 2
  Relative MIC (log10): 0.301 log10
[5]
  Relative MIC: 2
  Relative MIC (log10): 0.301 log10
AB-SEN (A. baumannii ATCC 17978), evolved line 2 of the given antibiotic
  MIC of evolved line: 4 µg/mL
AB-SEN (A. baumannii ATCC 17978), evolved line 2 vs ancestor
  Relative MIC: 1
AB-SEN (A. baumannii ATCC 17978), evolved line 4 of the given antibiotic
  MIC of evolved line: 8 µg/mL
AB-SEN (A. baumannii ATCC 17978), evolved line 4 vs ancestor
  Relative MIC: 2
AB-SEN (A. baumannii ATCC 17978), evolved line 6 of the given antibiotic
  MIC of evolved line: 8 µg/mL
AB-SEN (A. baumannii ATCC 17978), evolved line 6 vs ancestor
  Relative MIC: 2
AB-SEN (A. baumannii ATCC 17978), evolved line 8 of the given antibiotic
  MIC of evolved line: 8 µg/mL
AB-SEN (A. baumannii ATCC 17978), evolved line 8 vs ancestor
  Relative MIC: 2
AB-SEN (A. baumannii ATCC 17978), evolved line 9 of the given antibiotic
  MIC of evolved line: 8 µg/mL
AB-SEN (A. baumannii ATCC 17978), evolved line 9 vs ancestor
  Relative MIC: 2
AB-SEN (A. baumannii ATCC 17978), evolved line 10 of the given antibiotic
  MIC of evolved line: 8 µg/mL
AB-SEN (A. baumannii ATCC 17978), evolved line 10 vs ancestor
  Relative MIC: 2
AB-SEN (Acinetobacter baumannii ATCC 17978), evolved line 2
  Relative MIC: 1
[6]
  Relative MIC: 2
  Relative MIC (log10): 0.301 log10
[7]
  Relative MIC: 2
  Relative MIC (log10): 0.301 log10
[8]
  Relative MIC: 2
  Relative MIC (log10): 0.301 log10
[9]
  Relative MIC: 2
  Relative MIC (log10): 0.301 log10
[10]
  Relative MIC: 2
  Relative MIC (log10): 0.301 log10
ALE, Acinetobacter baumannii ATCC 17978 (AB-SEN), evolved line 2
  Relative MIC: 1
ALE, Acinetobacter baumannii ATCC 17978 (AB-SEN), evolved line 4
  Relative MIC: 2
ALE, Acinetobacter baumannii ATCC 17978 (AB-SEN), evolved line 6
  Relative MIC: 2
ALE, Acinetobacter baumannii ATCC 17978 (AB-SEN), evolved line 8
  Relative MIC: 2
ALE, Acinetobacter baumannii ATCC 17978 (AB-SEN), evolved line 9
  Relative MIC: 2
ALE, Acinetobacter baumannii ATCC 17978 (AB-SEN), evolved line 10
  Relative MIC: 2
ALE, Acinetobacter baumannii ATCC BAA 1605 (AB-MDR), evolved line 2
  Relative MIC: 2
ALE, Acinetobacter baumannii ATCC BAA 1605 (AB-MDR), evolved line 5
  Relative MIC: 2
ALE, Acinetobacter baumannii ATCC BAA 1605 (AB-MDR), evolved line 7
  Relative MIC: 4
ALE, Acinetobacter baumannii ATCC BAA 1605 (AB-MDR), evolved line 9
  Relative MIC: 2
ALE, Acinetobacter baumannii ATCC BAA 1605 (AB-MDR), evolved line 10
  Relative MIC: 2
Acinetobacter baumannii ATCC 17978 (AB-SEN), evolved line 2
  Relative MIC: 1
Acinetobacter baumannii ATCC 17978 (AB-SEN), evolved line 4
  Relative MIC: 2
Acinetobacter baumannii ATCC 17978 (AB-SEN), evolved line 6
  Relative MIC: 2
Acinetobacter baumannii ATCC 17978 (AB-SEN), evolved line 8
  Relative MIC: 2
Acinetobacter baumannii ATCC 17978 (AB-SEN), evolved line 9
  Relative MIC: 2
Acinetobacter baumannii ATCC 17978 (AB-SEN), evolved line 10
  Relative MIC: 2
Acinetobacter baumannii ATCC BAA 1605 (AB-MDR), evolved line 2
  Relative MIC: 2
Acinetobacter baumannii ATCC BAA 1605 (AB-MDR), evolved line 5
  Relative MIC: 2
Acinetobacter baumannii ATCC BAA 1605 (AB-MDR), evolved line 7
  Relative MIC: 4
Acinetobacter baumannii ATCC BAA 1605 (AB-MDR), evolved line 9
  Relative MIC: 2
Acinetobacter baumannii ATCC BAA 1605 (AB-MDR), evolved line 10
  Relative MIC: 2
